Measured values reported in patent publication US7615564B2, “Isoquinoline derivatives having kinasae inhibitory activity and drugs containing the same” (Kirin Beer Kabushiki Kaisha, priority 2002, dated 2009).

Tested on: Mouse-derived CCR2 overexpressing human-derived histiocyte lymphoma (U937/CCR2)
Assay: Leukocyte migration inhibitory activity (MCP-1 induced migration, CHEMOTAXICELL)
Format: cell-based
Details: U-937, test compound concentration 10 μg/ml, MCP-1 ligand, migration 1 hr
Description: Mouse-derived CCR2 overexpressing human-derived histiocyte lymphoma (U937/CCR2), was suspended in a 0.1% BSA-containing RPMI 1640 medium, to which a test compound had been added (5×10^6/ml), and the suspension was incubated for 20 min. A chemical solution (500 μl) (0.1% BSA-containing RPMI 1640 medium DMSO 1%), to which an MCP-1 ligand (1 μM) and the test compound had been added, was added to a 24-well plate. CHEMOTAXICELL was put thereon, and 200 μl of the cell suspension was added to the top layer, followed by migration under a 5% CO2 atmosphere at 37° C. for one hr. The number of cells, which had migrated to the lower chamber, was counted with a particle count analyzer (CDA-500, SYSMEX CORPORATION), and the percentage migration inhibition was calculated by the following equation: Migration inhibition (%)=(1−number of migrated cells in the presence of test compound/number of migrated cells in the absence of test compound)×100

SMILES | inhibition at 10 µg/mL
Nc1cc(Cl)ccc1CN1CCC(Nc2cccc3cnccc23)C1 (centres unmarked) [Example 19, N5-[1-(2-Amino-4-chlorobenzyl)tetrahydro-1H-3-pyrrolyl]-5-isoquinolylamine] | 82%
Clc1cccc(CN2CCCC(Nc3cccc4cnccc34)C2)c1 (centres unmarked) [Example 21, N5-[1-(3-Chlorobenzyl)-3-piperidyl]-5-isoquinolylamine] | 97%
Clc1ccccc1CN1CCC(Nc2cccc3cnccc23)C1 (centres unmarked) [Example 1, N5-[1-(2-Chlorobenzyl)tetrahydro-1H-3-pyrrolyl]-5-isoquinolylamine] | 86%
Fc1cccc(F)c1CN1CCC(Nc2cccc3cnccc23)C1 (centres unmarked) [Example 5, N5-[1-(2,6-Difluorobenzyl)tetrahydro-1H-3-pyrrolyl]-5-isoquinolylamine] | 93%
Clc1cccc(CN2CCC(Nc3cccc4cnccc34)C2)c1 (centres unmarked) [Example 2, N5-[1-(3-Chlorobenzyl)tetrahydro-1H-3-pyrrolyl]-5-isoquinolylamine] | 90%
Clc1ccc(CN2CCCC(Nc3cccc4cnccc34)C2)cc1 (centres unmarked) [Example 22, N5-[1-(4-Chlorobenzyl)-3-piperidyl]-5-isoquinolylamine] | 80%

Biological target: T1, Recombinant Rho kinase (fused protein composed of bovine Rho kinase catalytic region and glutathione S-transferase) (Bos taurus, UniProt Q28021)
T1 construct: fused protein composed of bovine Rho kinase catalytic region and glutathione S-transferase; glutathione S-transferase (GST); made in house; host or cells: insect cells infected with baculovirus
T1 sequence (Q28021 92-354 limits assumed): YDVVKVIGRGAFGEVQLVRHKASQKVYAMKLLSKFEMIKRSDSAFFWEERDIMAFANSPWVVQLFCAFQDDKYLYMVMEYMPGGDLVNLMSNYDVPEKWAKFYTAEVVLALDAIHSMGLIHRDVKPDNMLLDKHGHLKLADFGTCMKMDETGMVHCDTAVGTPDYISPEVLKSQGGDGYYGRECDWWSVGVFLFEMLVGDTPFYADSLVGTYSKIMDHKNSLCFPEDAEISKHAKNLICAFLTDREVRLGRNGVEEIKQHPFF
Assay: Rho kinase inhibitory activity (phosphorylation of S6 231-239 substrate with γ32P-ATP)
Format: biochemical
Details: concentration inhibiting substrate phosphorylation by 50%
Description: This permits the substrate to be labeled with the radioisotope.
Thereafter, the substrate was adsorbed to a filter paper. ATP was washed away with a phosphoric acid solution, and the amount of the phosphorylated substrate was then measured with a liquid scintillation counter.

SMILES | IC50
O=[N+]([O-])c1ccc(CN2CCCC(Nc3cccc4cnccc34)C2)cc1 (centres unmarked) [Example 30, N-(5-Isoquinolinyl)-N-[1-(4-nitrobenzyl)-3-piperidyl]amine] | 1800 nM
c1cc(NC2CCCN(Cc3cc[nH]c3)C2)c2ccncc2c1 (centres unmarked) [Example 40, N-(5-Isoquinolinyl)-N-[1-(1H-3-pyrrolylmethyl)-3-piperidyl]amine] | 670 nM
O=[N+]([O-])c1cccc(CN2CCCC(Nc3cccc4cnccc34)C2)c1 (centres unmarked) [Example 29, N-(5-Isoquinolinyl)-N-[1-(3-nitrobenzyl)-3-piperidyl]amine] | 1900 nM
O=[N+]([O-])c1ccc(CN2CCC(Nc3cccc4cnccc34)C2)cc1 (centres unmarked) [Example 11, N-(5-Isoquinolyl)-N-[1-(4-nitrobenzyl)tetrahydro-1H-3-pyrrolyl]amine] | 660 nM
c1cncc(CN2CCCC(Nc3cccc4cnccc34)C2)c1 (centres unmarked) [Example 33, N-(5-Isoquinolinyl)-N-[1-(3-pyridylmethyl)-3-piperidyl]amine] | 1000 nM
c1ccc(CN2CCCC(Nc3cccc4cnccc34)C2)nc1 (centres unmarked) [Example 32, N-(5-Isoquinolinyl)-N-[1-(2-pyridylmethyl)-3-piperidyl]amine] | 1300 nM
Clc1cccc(Cl)c1CN1CCCC(Nc2cccc3cnccc23)C1 (centres unmarked) [Example 25, N5-[1-(2,6-Dichlorobenzyl)-3-piperidyl]-5-isoquinolylamine] | 1200 nM
O=[N+]([O-])c1cc(Cl)ccc1CN1CCCC(Nc2cccc3cnccc23)C1 (centres unmarked) [Example 31, N5-[1-(4-Chloro-2-nitrobenzyl)-3-piperidyl]-5-isoquinolylamine] | 2300 nM
O=[N+]([O-])c1cc(Cl)ccc1CN1CCC(Nc2cccc3cnccc23)C1 (centres unmarked) [Example 12, N5-[1-(4-Chloro-2-nitrobenzyl)tetrahydro-1H-3-pyrrolyl]-5-isoquinolylamine] | 1300 nM
c1cc(NC2CCCN(Cc3ccncc3)C2)c2ccncc2c1 (centres unmarked) [Example 34, N-(5-Isoquinolinyl)-N-[1-(4-pyridylmethyl)-3-piperidyl]amine] | 1500 nM
c1cc(NC2CCN(Cc3ccncc3)C2)c2ccncc2c1 (centres unmarked) [Example 15, N-(5-Isoquinolyl)-N-[1-(4-pyridylmethyl)tetrahydro-1H-3-pyrrolyl]amine] | 1100 nM
O=[N+]([O-])c1ccccc1CN1CCCC(Nc2cccc3cnccc23)C1 (centres unmarked) [Example 28, N-(5-Isoquinolinyl)-N-[1-(2-nitrobenzyl)-3-piperidyl]amine] | 580 nM
c1cncc(CN2CCC(Nc3cccc4cnccc34)C2)c1 (centres unmarked) [Example 14, N-(5-Isoquinolyl)-N-[1-(3-pyridylmethyl)tetrahydro-1H-3-pyrrolyl]amine] | 590 nM
O=[N+]([O-])c1ccccc1CN1CCC(Nc2cccc3cnccc23)C1 (centres unmarked) [Example 9, N-(5-Isoquinolyl)-N-[1-(2-nitrobenzyl)tetrahydro-1H-3-pyrrolyl]amine] | 570 nM

Second part, the molecule after the results:

IC50 | SMILES
480 nM | c1ccc(CN2CCC(Nc3cccc4cnccc34)C2)nc1 (centres unmarked) [Example 13, N-(5-Isoquinolyl)-N-[1-(2-pyridylmethyl)tetrahydro-1H-3-pyrrolyl]amine]
400 nM | Nc1cc(Cl)ccc1CN1CCCC(Nc2cccc3cnccc23)C1 (centres unmarked) [Example 38, N5-[1-(2-Amino-4-chlorobenzyl)-3-piperidyl]-5-isoquinolylamine]
310 nM | Nc1cccc(CN2CCCC(Nc3cccc4cnccc34)C2)c1 (centres unmarked) [Example 36, N5-[1-(3-Aminobenzyl)-3-piperidyl]-5-isoquinolylamine]
290 nM | Nc1ccc(CN2CCCC(Nc3cccc4cnccc34)C2)cc1 (centres unmarked) [Example 37, N5-[1-(4-Aminobenzyl)-3-piperidyl]-5-isoquinolylamine]
270 nM | Clc1cccc(CN2CCCC(Nc3cccc4cnccc34)C2)c1 (centres unmarked) [Example 21, N5-[1-(3-Chlorobenzyl)-3-piperidyl]-5-isoquinolylamine]
270 nM | Nc1ccccc1CN1CCCC(Nc2cccc3cnccc23)C1 (centres unmarked) [Example 35, N5-[1-(2-Aminobenzyl)-3-piperidyl]-5-isoquinolylamine]
240 nM | Nc1cc(Cl)ccc1CN1CCC(Nc2cccc3cnccc23)C1 (centres unmarked) [Example 19, N5-[1-(2-Amino-4-chlorobenzyl)tetrahydro-1H-3-pyrrolyl]-5-isoquinolylamine]
240 nM | c1ccc(CN2CCCC(Nc3cccc4cnccc34)C2)cc1 (centres unmarked) [Example 23, N-(1-Benzyl-3-piperidyl)-5-isoquinolylamine]
230 nM | Fc1cccc(F)c1CN1CCCC(Nc2cccc3cnccc23)C1 (centres unmarked) [Example 24, N5-[1-(2,6-Difluorobenzyl)-3-piperidyl]-5-isoquinolylamine]
200 nM | CC(C)c1ccc(CN2CCC(Nc3cccc4cnccc34)C2)cc1 (centres unmarked) [Example 8, N5-[1-(4-Isopropylbenzyl)tetrahydro-1H-3-pyrrolyl]-5-isoquinolylamine]
200 nM | c1coc(CN2CCCC(Nc3cccc4cnccc34)C2)c1 (centres unmarked) [Example 43, N-[1-(2-Furylmethyl)-3-piperidyl]-N-(5-isoquinolyl)amine]
200 nM | O=[N+]([O-])c1cccc(CN2CCC(Nc3cccc4cnccc34)C2)c1 (centres unmarked) [Example 10, N-(5-Isoquinolyl)-N-[1-(3-nitrobenzyl)tetrahydro-1H-3-pyrrolyl]amine]
190 nM | c1csc(CN2CCCC(Nc3cccc4cnccc34)C2)c1 (centres unmarked) [Example 41, N-(5-Isoquinolinyl)-N-[1-(2-thienylmethyl)-3-piperidyl]amine]
180 nM | Cc1ccc(CN2CCCC(Nc3cccc4cnccc34)C2)cc1 (centres unmarked) [Example 26, N-(5-Isoquinolinyl)-N-[1-(4-methylbenzyl)-3-piperidyl]amine]
140 nM | Clc1cccc(Cl)c1CN1CCC(Nc2cccc3cnccc23)C1 (centres unmarked) [Example 6, N5-[1-(2,6-Dichlorobenzyl)tetrahydro-1H-3-pyrrolyl]-5-isoquinolylamine]
110 nM | c1cc(NC2CCCN(Cc3ccoc3)C2)c2ccncc2c1 (centres unmarked) [Example 44, N-[1-(3-Furylmethyl)-3-piperidyl]-N-(5-isoquinolyl)amine]
99 nM | Clc1ccccc1CN1CCC(Nc2cccc3cnccc23)C1 (centres unmarked) [Example 1, N5-[1-(2-Chlorobenzyl)tetrahydro-1H-3-pyrrolyl]-5-isoquinolylamine]
73 nM | Fc1cccc(F)c1CN1CCC(Nc2cccc3cnccc23)C1 (centres unmarked) [Example 5, N5-[1-(2,6-Difluorobenzyl)tetrahydro-1H-3-pyrrolyl]-5-isoquinolylamine]
63 nM | Clc1cccc(CN2CCC(Nc3cccc4cnccc34)C2)c1 (centres unmarked) [Example 2, N5-[1-(3-Chlorobenzyl)tetrahydro-1H-3-pyrrolyl]-5-isoquinolylamine]
31 nM | c1cc(NC2CCCN(Cc3ccsc3)C2)c2ccncc2c1 (centres unmarked) [Example 42, N-(5-Isoquinolinyl)-N-[1-(3-thienylmethyl)-3-piperidyl]amine]
23 nM | c1c[nH]c(CN2CCCC(Nc3cccc4cnccc34)C2)c1 (centres unmarked) [Example 39, N-(5-Isoquinolinyl)-N-[1-(1H-2-pyrrolylmethyl)-3-piperidyl]amine]
